Laboratory results taken from US4857549A, “Antitumor compounds” (priority 1988, dated 1989).
Several values for one entry are separate records, joined by “and”; a condition that tells them apart may be missing. Equal entries are not always repeated. Where two headings read alike, the source gives them in different places.

Experiments:
[1] = tested on: B16 melanoma cells (highly metastatic subline, F10); assay: B16 melanoma in vitro cloning (colony forming) assay, 2 hour exposure; type: cell-based; settings: read-out: IC50: concentration which inhibits cloning efficiency of B16 melanoma cells by 50%
Experimental: Initially, the cytotoxic activity of the Formula (I) and Formula (IA) compounds used in the pharmaceutical compositions and methods of treatment of the instant invention was evaluated in vitro using B16 melanoma cells according to the following assay:
B16 melanoma (highly metastatic subline, F10) are used and maintained as monolayer cultures in Minimal Essential Media (Grand Island Biological Co., Grand Island, N.Y. ) supplemented with 10% calf serum, 1% antibiotics in a 5% CO2 humidified incubator at 37° C. Asynchronous populations of cells are harvested and replated to 5000 cells/plate in sterile 60 mm×15 mm petri plates. Plates are incubated overnight to allow attachment of the cells to the plate. Cells are treated with a Formula (I) or Formula (IA) compound or cisplatin under sterile conditions, allowed to react for 2 hours followed by aspiration of medium. Plates are washed one time with 5 ml of phosphate buffered saline (PBS), followed by the addition of 5 ml of fresh media. Plates are incubated for 5 days at 37° in a CO2 incubator. Viability is measured by the ability of a cell to form a colony of greater than 50 cells. Colonies are fixed with 0.5% crystal violet in 95% ethanol. Plates are dried and counted with a Biotran III Automatic Count Totalizer (New Brunswick Scientific Co., Edison, N.J.). Mean and standard deviation of triplicate samples are determined for each drug concentration. The data are analyzed by plotting the log of the survival fraction (number of colonies in drug treated plates/number of colonies in controls) versus the drug concentration.
^(a) concentration which inhibits cloning efficiency of B16 melanoma
cells by 50% on a 2hour exposure.

[2] = tested on: M5076 reticulum cell sarcoma; assay: ip M5076 reticulum cell sarcoma assay in mice; settings: for MTD (maximally tolerated dose): B6D2F1 female mice; for MTD (maximally tolerated dose) / ILS max (maximum increase in lifespan): ip qD × 10; for ILS max (maximum increase in lifespan): ip M5076 sarcoma mice, slash = separate experiments
Experimental: Another chemosensitive tumor model is intraperitoneally (ip) implanted M5076 reticulum cell sarcoma in mice. In this system B6D2F1 female mice are inoculated with 0.5 ml of a 10 percent weight:volume (w:v) brei of M5076 prepared from pooled subcutaneous (sc) tumors excised at about 21 days from c57B1/6 donor mice. Drugs are administered ip. Daily treatment is begun 24 hours after implantation and is continued for ten days. The treatment regimen for M5076 is more prolonged than for P388 because of the slower growth rate and longer control survival time of the M5076 tumor.

[3] = tested on: human tumor colony forming units; assay: human tumor cloning assay (all tumor types); type: cell-based
Experimental: The cytotoxic activity of Compound No. 2 from TABLE A, namely μ-[1,2-bis(diphenylphosphino)ethane]bis-[chlorogold (I)], was also determined in a human tumor cloning assay. This procedure is described as follows:
[Salmon, et al., N. Engl. J. Med., 298:1321 (1978)].

[4] = tested on: ADJ-PC6 Plasmacytoma; assay: ADJ-PC6 plasmacytoma assay
Experimental: (§1) Tumor cells are carried by serial sc passage in BALB/c female mice and then collected aseptically on ca. Day 21 and minced in Hank's balanced salt solution. The cells are then dispersed by homogenization in a loose-fitting teflon glass homogenizer, and cell concentration is adjusted to 4×10^6 viable ([…]) cells per ml by hemocytometer counts. A total of 0.5 ml (2×10^6 cells) is implanted sc on the right flank of BALB/c female mice in groups of 8. Treatment is given ip on Days 1-10, and tumors are measured in perpendicular diameters with a vernier caliper on Day 18.
(§2) ^(b) maximally tolerated dose for BALB/c female mice on an ip qD

[5] = tested on: P388 leukemia
[6] = tested on: Ovary tumor; settings: Table 3, Ovary; response = ≤50% survival of tumor colony forming units
Text: (§4) Tumor Specimens: Specimens were collected using asceptic technique and transported in medium containing Penicillin, Streptomycin, and Amphotericin B. Specimens which could not be immediately processed were minced into fragments 5 mm^3 or smaller, prior to transport. Effusions were collected with ten units of preservative free heparin per ml of effusion. Specimens were processed to obtain cell suspensions as soon as possible after removal from the patient.
(§5) Culture Methods: A two-layer soft agar culture system was used in these studies. […] Cell counts were performed on a hemacytometer after lysis of erythrocytes in acetic acid. A total of 500,000 nucleated cells were plated in a volume of 1 ml (0.3 percent agar) over 1 ml base layers (0.6 percent agar) in each culture. Cultures were incubated in humidified 37° C. incubators with an atmosphere of 5 percent CO2 in air and control plates monitored for growth using an inverted microscope. At the time of maximum colony formation (7-21 days in culture) final colony counts were obtained with a Bausch and Lomb FAS II image analysis system. Objects presenting a circular profile in two dimensions with a minimum diameter of 60 μm were scored as colonies by the system.
(§6) Drug Treatment: A total of six untreated or vehicle treated cultures were plated for determination of control growth in each experiment. […]

[7] = tested on: Breast tumor; settings: Table 3, Breast; response = ≤50% survival of tumor colony forming units
Text: as §4, §5, §6

[8] = tested on: Lung tumor; settings: Table 3, Lung; response = ≤50% survival of tumor colony forming units
Text: as §4, §5, §6

[9] = tested on: Unknown primary tumor; settings: Table 3, Unknown primary; response = ≤50% survival of tumor colony forming units
Text: as §4, §5, §6

[10] = tested on: Kidney tumor; settings: Table 3, Kidney; response = ≤50% survival of tumor colony forming units
Text: as §4, §5, §6

[11] = tested on: Corpus uterus tumor; settings: Table 3, Corpus uterus; response = ≤50% survival of tumor colony forming units
Text: as §4, §5, §6

[12] = tested on: Melanoma; settings: Table 3, Melanoma; response = ≤50% survival of tumor colony forming units
Text: as §4, §5, §6

[13] = tested on: B16 melanoma; assay: in vivo ip B16 melanoma assay
Experimental: (§7) The cytotoxic activity of several compounds of Formula (I) was evaluated in vivo using B16 melanoma cells according to the following assay:
(§8) In this system, groups of eight B6D2F1 mice are inoculated ip with 0.5 ml of a 10% (w:v) brei of B16 melanoma prepared from pooled sc tumors excised at 14.noteq.21 days from C67B1 /6 donor mice. Daily treatment is begun 24 hours after tumor implantation and is continued daily for 10 days. The route of drug administration is ip. The mice are monitored daily for survival for 60 days. Antitumor activity is assessed by prolongation of median survival time.

[14] = tested on: mammary adenocarcinoma 16/c; assay: sc mammary adenocarcinoma 16/c assay
Experimental: (§9) The mammary adenocarcinoma 16/c tumor is implanted sc in C3H mice, and the Formula (I) compound is administered ip on days 1, 5, 9, 13 and 17. Tumors are measured 3 weeks after implantation, and activity is assessed by degree of tumor growth inhibition.

[15] = ADJ-PC6 plasmacytoma assay; settings: mouse, in vivo, ip
Experimental: as §1, §2

[16] = ip Lewis Lung tumor assay; type: in vivo; design: ILS: dose or concentration left out as unconfirmed; settings: in vivo; q4D×4 regimen
Text: (§3) The protocol for carrying out this tumor assay is well known to those of skill in the art.

[17] = tested on: Lewis Lung tumor; assay: ip Lewis Lung tumor assay; type: in vivo; design: ILS: dose or concentration left out as unconfirmed; settings: at MTD of […] mg/kg, q4D×4 regimen
Text: as §3

[18] = tested on: cells; settings: Struck et al., J. Med. Chem. (1966); cited from earlier work
[19] = in vivo; settings: mouse, ip
[20] = in vivo ip B16 melanoma assay; settings: mouse, in vivo, ip
Experimental: as §7, §8

[21] = sc mammary adenocarcinoma 16/c assay; settings: mouse, in vivo
Experimental: as §9

[22] = ip Madison 109 lung carcinoma tumor assay; settings: in vivo
[23] = tested on: Madison 109 lung carcinoma; assay: ip Madison 109 lung carcinoma tumor assay; settings: at MTD of 16 mg/kg, q4D×4 regimen
[24] = Table 1, ≤30% survival of tumor colony forming units, 10 μg/ml, continuous exposure
[25] = Table 1, ≤50% survival of tumor colony forming units, 10 μg/ml, continuous exposure
[26] = Table 3, all tumor types, response = ≤50% survival of tumor colony forming units

## [Cl][Au][PH](CC[PH]([Au][Cl])(c1ccccc1)c1ccccc1)(c1ccccc1)c1ccccc1 [Compound 2, μ-[1,2-bis(diphenylphosphino)ethane]bis-[chlorogold (I)]]
[1]; Table A, Formula (I)
  IC50: 8 µM
[2]; Table C
  MTD (maximally tolerated dose): 4 mg/kg
[2]; Table C, compound 2: seven experiments
  ILS max (maximum increase in lifespan): 76 ± 30%
[2]; in words, based on Tables C and D
  activity in the ip M5076 reticulum cell sarcoma assay: good activity
[3]; [24]
  # responses ≤30%/# evaluable: 6/19
  responses ≤30% (% of evaluable): 32%
[3]; [25]
  # responses ≤50%/# evaluable: 11/19
  responses ≤50% (% of evaluable): 58%
[3]; [26]
  # responses/# evaluable, TOTALS: 11/19
  responses, TOTALS (% of evaluable): 58%
[3]; in words
  in vitro cytotoxic activity against primary human tumor cells: substantial in vitro cytotoxic activity
[4]; Table G, ip days 1-10, tumors measured day 18, slash = separate experiments
  % Inhibition of tumor growth: 96% and 93%
[4]; in words, based on Table G
  antitumor activity in ADJ-PC6 Plasmacytoma: excellent antitumor activity
[5]; Table B, B6D2F1 female mice, ip qD × 5
  MTD (maximally tolerated dose): 6 mg/kg
[6]
  # responses/# evaluable: 4/6
[7]
  # responses/# evaluable: 1/3
[8]
  # responses/# evaluable: 1/3
[9]
  # responses/# evaluable: 2/3
[10]
  # responses/# evaluable: 2/2
[11]
  # responses/# evaluable: 1/1
[12]
  # responses/# evaluable: 0/1
[13]; Table E, B6D2F1 mice, ip qD × 10
  MTD (maximally tolerated dose): 5 um/kg
[14]; Table F, C3H mice, intermittent ip regimen
  MTD (maximally tolerated dose): 9 um/kg

## c1ccc(P(CCP(c2ccccc2)c2ccccc2)c2ccccc2)cc1 [Compound 33, bis(1,2-diphenylphosphino)-ethane]
[1]; Mus musculus, B16, Table AI, Formula (IA)
  IC50: 60 µM
[2]; Table D
  MTD (maximally tolerated dose): 6 mg/kg
  ILS max (maximum increase in lifespan): 70% and 96% and 68%
[15]
  MTD: 4 mg/kg
[4]; one experiment
  MTD: 6 mg/kg
[4]; one experiment, at MTD of 6 mg/kg
  tumor growth inhibition: 94%
[4]; second experiment, at MTD of 4 mg/kg
  tumor growth inhibition: 49%
[16]
  MTD: 12 mg/kg
[17]
  ILS: 69%
[5]; Table BI, ip P388 leukemia mice, ip days 1-5, slash-separated figures are separate experiments, compound 33: 41 experiments
  ILS (maximum increase in lifespan): 98 ± 26%
[18]
  alleged cytotoxic activity: alleged cytotoxic activity
[19]
  MTD: 16 mg/kg
[20]
  MTD: 5 mg/kg
[13]; at MTD of 5 mg/kg, three separate experiments, listed as Compound No. 2 from Table BI, 5 mg/kg
  ILS: 64% and 49% and 39%
[21]; ip
  MTD: 30 mg/kg
[21]; iv
  MTD: 32 mg/kg
[14]; iv, at MTD of 32 mg/kg
  tumor inhibition: 95%
[22]
  MTD: 16 mg/kg
[23]
  ILS: 50%
